Measured values published in ChEMBL document CHEMBL4334438, “Discovery of novel glycogen synthase kinase-3α inhibitors: Structure-based virtual screening, preliminary SAR and biological evaluation for treatment of acute myeloid leukemia” (Eur J Med Chem, 2019).

Legend:
[1] = biological target: Glycogen synthase kinase-3 alpha (Homo sapiens, UniProt P49840); assay: Inhibition of human GSK-3alpha S449A mutant (2 to end residues) using phospho GS2 peptide as substrate after 40 mins in presence of [gamma-33ATP] by scintillation counting method
[2] = biological target: Insulin-like growth factor 1 receptor (Homo sapiens) (UniProt P08069); assay: Inhibition of human activated IGF1R (959 to end residues) assessed as residual activity at 1 uM using KKKSPGEYVNIEFG as substrate after 40 mins by [gamma-33ATP] radiometric assay relative to control
[3] = biological target: Serine/threonine-protein kinase 24 (Homo sapiens) (UniProt Q9Y6E0); assay: Inhibition of recombinant human MST3 (1 to 304 residues) assessed as residual activity at 1 uM using ERMRPRKRQGSVRRRV as substrate measured after 40 mins in presence of [gamma33P]ATP by scintillation counting method relative to control
[4] = biological target: cAMP-dependent protein kinase catalytic subunit alpha (Homo sapiens) (UniProt P17612); assay: Inhibition of recombinant human PKA assessed as residual activity at 1 uM using Kemptide as substrate measured after 40 mins in presence of [gamma33P]ATP by scintillation counting method relative to control
[5] = biological target: Serine/threonine-protein kinase STK11 (Homo sapiens) (UniProt Q15831); assay: Inhibition of recombinant human LKB1 assessed as residual activity at 1 uM using LSNLYHQGKFLQTFCGSPLYRRR as substrate after 40 mins in presence of [gamma-33ATP] by scintillation counting based radiometry assay relative to control
[6] = biological target: Mitogen-activated protein kinase kinase kinase kinase 1 (Homo sapiens) (UniProt Q92918); assay: Inhibition of human HPK1 (1 to 346 residues) assessed as residual activity at 1 uM using myelin basic protein as substrate after 40 mins by [gamma-33ATP] radiometric assay relative to control
[7] = biological target: Tyrosine-protein kinase ZAP-70 (Homo sapiens) (UniProt P43403); assay: Inhibition of recombinant full-length human ZAP70 at 1 uM assessed as residual activity at 1 uM using poly(Glu, Tyr) 4:1 as substrate measured after 40 mins in presence of [gamma33P]ATP by scintillation counting method relative to control
[8] = biological target: Homeodomain-interacting protein kinase 3 (Homo sapiens) (UniProt Q9H422); assay: Inhibition of human HIPK3 (161 to 562 residues) assessed as residual activity at 1 uM using myelin basic protein as substrate after 40 mins by [gamma-33ATP] radiometric assay relative to control
GSK-3beta (H350L mutant) = GSK-3beta (H350L mutant) (Homo sapiens, UniProt P49841, H350L); assay: Inhibition of human GSK-3beta H350L mutant (2 to end residues) at 10 uM using phospho GS2 peptide as substrate after 40 mins by [gamma-33ATP] radiometric assay relative to control; settings: human GSK-3beta H350L mutant enzyme (residues 2 to end), probe phospho GS2 peptide
[9] = biological target: Serine/threonine-protein kinase 10 (Homo sapiens) (UniProt O94804); assay: Inhibition of recombinant human LOK (1 to 348 residues) assessed as residual activity at 1 uM using RLGRDKYKTLRQIRQ as substrate after 40 mins in presence of [gamma-33ATP] by scintillation counting based radiometry assay relative to control
[10] = biological target: 3-phosphoinositide-dependent protein kinase 1 (Homo sapiens) (UniProt O15530); assay: Inhibition of recombinant human PDK1 (52 to end residues) assessed as residual activity at 1 uM using PDKtide as substrate measured after 40 mins in presence of [gamma33P]ATP by scintillation counting method relative to control
[11] = biological target: DNA-dependent protein kinase catalytic subunit (Homo sapiens) (UniProt P78527); assay: Inhibition of recombinant full-length human DNA-PK at 1 uM assessed as residual activity at 1 uM using GST-cMyc-p53 as substrate measured after 40 mins by fluorescence assay
[12] = biological target: Serine/threonine-protein kinase Nek1 (Homo sapiens) (UniProt Q96PY6); assay: Inhibition of recombinant human NEK1 (1 to 505 residues) assessed as residual activity at 1 uM using RLGRDKYKTLRQI as substrate measured after 40 mins in presence of [gamma33P]ATP by scintillation counting based radiometry assay relative to control
[13] = test system: Mast/stem cell growth factor receptor Kit (Homo sapiens), P10721 [V560G]; assay: Inhibition of recombinant human C-Kit V560G mutant (544 to end residues) assessed as residual activity at 1 uM poly(Glu, Tyr) 4:1 as substrate incubated 40 mins in presence of [gamma-33ATP] by scintillation counting based radiometry assay relative to control
[14] = biological target: Activin receptor type-2A (Homo sapiens) (UniProt P27037); assay: Inhibition of human ACTR2A (162 to end residues) assessed as residual activity at 1 uM using casein as substrate incubated for 120 mins in presence of [gamma-33ATP] by scintillation counting based radiometry assay relative to control
[15] = test system: PI3-kinase p110-alpha/p85-alpha (Homo sapiens), P27986+P42336 [E545K]; assay: Inhibition of recombinant full-length human PI3K p110alpha E545K mutant/p85alpha assessed as residual activity at 1 uM assessed as residual activity at 1 uM using phosphatidylinositol-4, 5-bisphosphate as substrate incubated for 40 mins in presence of [gamma33P]ATP by scintillation counting based radiometry assay relative to control; type: protein-complex assay
[16] = biological target: Serine/threonine-protein kinase PAK 3 (Homo sapiens) (UniProt O75914); assay: Inhibition of recombinant full-length human PAK3 assessed as residual activity at 1 uM using RRRLSFAEPG as substrate measured after 40 mins in presence of [gamma33P]ATP by scintillation counting method relative to control
[17] = biological target: G protein-coupled receptor kinase 6 (Homo sapiens) (UniProt P43250); assay: Inhibition of recombinant full length human GRK6 assessed as residual activity at 1 uM using casein as substrate at 40 mins in presence of [gamma-33ATP] by scintillation counting based radiometry assay relative to control
[18] = test system: Angiopoietin-1 receptor (Homo sapiens), Q02763 [Q939H,Q940H,Y897S]; assay: Inhibition of human Tie2 Q939H/Q940H/Y897S mutant (771 to end residues) assessed as residual activity at 1 uM using EFPIYDFLPAKKK as substrate measured after 40 mins in presence of [gamma33P]ATP by scintillation counting method relative to control
[19] = biological target: Ephrin type-B receptor 1 (Homo sapiens) (UniProt P54762); assay: Inhibition of recombinant human EphB1 (564 to end residues) assessed as residual activity at 1 uM using KVEKIGEGTYGVVYK as substrate at 40 mins in presence of [gamma-33ATP] by scintillation counting based radiometry assay relative to control
[20] = biological target: Serine/threonine-protein kinase Chk1 (Homo sapiens) (UniProt O14757); assay: Inhibition of recombinant full length human CHK1 assessed as residual activity at 1 uM using KKKVSRSGLYRSP as substrate incubated for 40 mins in presence of [gamma-33ATP] by scintillation counting based radiometry assay relative to control
Sequence of Serine/threonine-protein kinase Chk1 (Homo sapiens) (O14757 whole entry): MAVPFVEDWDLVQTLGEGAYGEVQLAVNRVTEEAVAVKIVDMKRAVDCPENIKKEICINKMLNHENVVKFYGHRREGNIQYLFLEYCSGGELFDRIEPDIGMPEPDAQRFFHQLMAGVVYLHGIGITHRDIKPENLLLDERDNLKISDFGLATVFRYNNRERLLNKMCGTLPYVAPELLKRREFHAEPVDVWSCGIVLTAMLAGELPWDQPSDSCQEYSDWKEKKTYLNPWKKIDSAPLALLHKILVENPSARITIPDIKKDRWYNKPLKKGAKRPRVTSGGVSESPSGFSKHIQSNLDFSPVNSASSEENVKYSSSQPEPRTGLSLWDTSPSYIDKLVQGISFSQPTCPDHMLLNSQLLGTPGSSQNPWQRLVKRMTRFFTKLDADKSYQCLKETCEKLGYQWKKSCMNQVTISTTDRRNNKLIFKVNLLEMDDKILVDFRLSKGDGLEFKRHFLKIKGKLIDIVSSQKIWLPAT

Sequence of GSK-3beta (H350L mutant) (P49841 whole entry, looked up, stated change not applied, the tested form may be a part): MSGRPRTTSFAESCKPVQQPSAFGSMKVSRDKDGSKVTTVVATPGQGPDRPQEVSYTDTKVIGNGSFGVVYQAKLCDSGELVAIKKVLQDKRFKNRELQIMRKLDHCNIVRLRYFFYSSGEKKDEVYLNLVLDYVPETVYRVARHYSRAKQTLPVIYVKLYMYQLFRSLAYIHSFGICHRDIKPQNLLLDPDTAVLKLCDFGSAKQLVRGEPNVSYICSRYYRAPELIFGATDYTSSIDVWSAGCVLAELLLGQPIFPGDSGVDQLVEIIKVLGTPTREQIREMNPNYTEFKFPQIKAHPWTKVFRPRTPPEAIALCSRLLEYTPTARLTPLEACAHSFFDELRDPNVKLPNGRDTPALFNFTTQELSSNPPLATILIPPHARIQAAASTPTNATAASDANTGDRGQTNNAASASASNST
Sequence of G protein-coupled receptor kinase 6 (Homo sapiens) (P43250 whole entry, looked up): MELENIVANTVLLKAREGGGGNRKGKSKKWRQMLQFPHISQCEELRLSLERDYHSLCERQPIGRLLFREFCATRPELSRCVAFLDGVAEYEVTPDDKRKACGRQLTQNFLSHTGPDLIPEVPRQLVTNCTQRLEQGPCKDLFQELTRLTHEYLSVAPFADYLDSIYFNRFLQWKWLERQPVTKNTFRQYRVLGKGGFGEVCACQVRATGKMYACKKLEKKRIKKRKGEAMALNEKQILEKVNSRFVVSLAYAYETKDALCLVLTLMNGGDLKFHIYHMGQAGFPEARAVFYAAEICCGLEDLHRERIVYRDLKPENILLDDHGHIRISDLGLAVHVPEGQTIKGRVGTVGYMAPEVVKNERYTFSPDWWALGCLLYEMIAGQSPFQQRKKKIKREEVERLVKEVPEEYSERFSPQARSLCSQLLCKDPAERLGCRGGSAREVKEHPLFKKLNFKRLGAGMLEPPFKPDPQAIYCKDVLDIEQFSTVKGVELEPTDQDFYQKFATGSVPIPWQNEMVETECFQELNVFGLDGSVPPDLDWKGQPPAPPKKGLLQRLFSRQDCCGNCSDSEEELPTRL
Sequence of Serine/threonine-protein kinase STK11 (Homo sapiens) (Q15831 whole entry, the tested form may be a part): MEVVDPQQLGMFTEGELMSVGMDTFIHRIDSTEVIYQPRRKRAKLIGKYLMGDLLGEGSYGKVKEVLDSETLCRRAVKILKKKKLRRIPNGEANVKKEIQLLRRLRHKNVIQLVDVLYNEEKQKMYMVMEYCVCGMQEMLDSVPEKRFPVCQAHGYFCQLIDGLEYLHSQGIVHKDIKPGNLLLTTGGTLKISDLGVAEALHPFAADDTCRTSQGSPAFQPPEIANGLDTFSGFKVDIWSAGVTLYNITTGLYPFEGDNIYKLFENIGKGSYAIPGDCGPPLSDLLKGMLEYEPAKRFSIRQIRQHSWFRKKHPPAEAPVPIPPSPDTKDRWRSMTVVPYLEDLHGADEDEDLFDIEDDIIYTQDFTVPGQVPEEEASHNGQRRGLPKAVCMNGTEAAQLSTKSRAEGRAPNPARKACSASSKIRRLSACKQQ
Sequence of Angiopoietin-1 receptor (Homo sapiens), Q02763 [Q939H,Q940H,Y897S] (Q02763 whole entry Y897S/Q939H/Q940H): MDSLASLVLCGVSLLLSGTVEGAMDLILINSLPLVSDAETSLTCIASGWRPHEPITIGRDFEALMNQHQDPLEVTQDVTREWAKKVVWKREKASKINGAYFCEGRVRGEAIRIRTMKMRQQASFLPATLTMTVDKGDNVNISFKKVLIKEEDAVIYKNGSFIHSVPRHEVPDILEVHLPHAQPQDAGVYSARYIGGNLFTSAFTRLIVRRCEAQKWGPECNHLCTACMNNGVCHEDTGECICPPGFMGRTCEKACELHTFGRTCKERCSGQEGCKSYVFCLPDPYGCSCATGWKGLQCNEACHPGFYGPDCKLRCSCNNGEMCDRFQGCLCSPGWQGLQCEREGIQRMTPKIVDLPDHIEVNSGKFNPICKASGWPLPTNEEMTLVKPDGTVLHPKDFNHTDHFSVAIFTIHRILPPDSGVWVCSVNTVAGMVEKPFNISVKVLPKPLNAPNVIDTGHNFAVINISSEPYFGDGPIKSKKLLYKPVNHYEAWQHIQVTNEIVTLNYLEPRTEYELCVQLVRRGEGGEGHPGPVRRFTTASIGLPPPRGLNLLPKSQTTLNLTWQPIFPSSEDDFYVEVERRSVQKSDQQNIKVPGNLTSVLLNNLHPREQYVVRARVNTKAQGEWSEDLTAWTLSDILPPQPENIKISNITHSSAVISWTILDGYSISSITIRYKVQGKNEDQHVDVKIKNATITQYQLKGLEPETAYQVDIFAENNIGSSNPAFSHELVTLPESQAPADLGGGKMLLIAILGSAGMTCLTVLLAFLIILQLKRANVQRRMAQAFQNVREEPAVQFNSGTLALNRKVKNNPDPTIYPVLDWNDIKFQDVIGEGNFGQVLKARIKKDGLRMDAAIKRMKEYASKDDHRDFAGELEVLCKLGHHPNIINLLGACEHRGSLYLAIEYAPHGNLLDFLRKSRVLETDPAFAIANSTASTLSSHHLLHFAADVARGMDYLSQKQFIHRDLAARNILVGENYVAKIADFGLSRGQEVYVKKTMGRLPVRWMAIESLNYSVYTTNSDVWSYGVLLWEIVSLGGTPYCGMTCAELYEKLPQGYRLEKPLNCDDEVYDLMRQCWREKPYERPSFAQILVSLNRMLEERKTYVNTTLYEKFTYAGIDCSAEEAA
Sequence of Ephrin type-B receptor 1 (Homo sapiens) (P54762 whole entry): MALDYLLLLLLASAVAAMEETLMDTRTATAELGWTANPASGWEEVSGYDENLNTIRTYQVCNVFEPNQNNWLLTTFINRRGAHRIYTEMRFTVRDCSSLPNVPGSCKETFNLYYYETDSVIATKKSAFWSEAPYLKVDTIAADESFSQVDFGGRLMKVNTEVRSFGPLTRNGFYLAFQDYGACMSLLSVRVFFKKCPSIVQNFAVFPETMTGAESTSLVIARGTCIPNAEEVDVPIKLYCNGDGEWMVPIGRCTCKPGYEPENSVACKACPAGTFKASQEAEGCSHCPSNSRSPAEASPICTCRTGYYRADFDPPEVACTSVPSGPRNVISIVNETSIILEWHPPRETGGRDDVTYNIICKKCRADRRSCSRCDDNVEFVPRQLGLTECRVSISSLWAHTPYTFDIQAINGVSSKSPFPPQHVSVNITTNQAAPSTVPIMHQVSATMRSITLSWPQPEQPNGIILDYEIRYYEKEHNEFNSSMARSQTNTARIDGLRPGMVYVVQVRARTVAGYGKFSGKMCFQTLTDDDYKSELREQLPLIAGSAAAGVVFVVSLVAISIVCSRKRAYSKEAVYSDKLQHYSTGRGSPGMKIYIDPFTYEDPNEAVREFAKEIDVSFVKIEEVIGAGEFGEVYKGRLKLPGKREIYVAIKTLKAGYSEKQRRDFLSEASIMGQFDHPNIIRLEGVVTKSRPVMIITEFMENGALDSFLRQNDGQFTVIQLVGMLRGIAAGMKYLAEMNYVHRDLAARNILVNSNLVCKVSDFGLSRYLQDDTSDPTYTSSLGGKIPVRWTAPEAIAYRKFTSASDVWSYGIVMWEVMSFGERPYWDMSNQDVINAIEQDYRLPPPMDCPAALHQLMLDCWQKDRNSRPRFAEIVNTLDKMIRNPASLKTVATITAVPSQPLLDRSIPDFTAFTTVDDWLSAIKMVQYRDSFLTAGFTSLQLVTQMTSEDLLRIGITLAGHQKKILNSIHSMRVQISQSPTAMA
Sequence of Glycogen synthase kinase-3 alpha (P49840 whole entry): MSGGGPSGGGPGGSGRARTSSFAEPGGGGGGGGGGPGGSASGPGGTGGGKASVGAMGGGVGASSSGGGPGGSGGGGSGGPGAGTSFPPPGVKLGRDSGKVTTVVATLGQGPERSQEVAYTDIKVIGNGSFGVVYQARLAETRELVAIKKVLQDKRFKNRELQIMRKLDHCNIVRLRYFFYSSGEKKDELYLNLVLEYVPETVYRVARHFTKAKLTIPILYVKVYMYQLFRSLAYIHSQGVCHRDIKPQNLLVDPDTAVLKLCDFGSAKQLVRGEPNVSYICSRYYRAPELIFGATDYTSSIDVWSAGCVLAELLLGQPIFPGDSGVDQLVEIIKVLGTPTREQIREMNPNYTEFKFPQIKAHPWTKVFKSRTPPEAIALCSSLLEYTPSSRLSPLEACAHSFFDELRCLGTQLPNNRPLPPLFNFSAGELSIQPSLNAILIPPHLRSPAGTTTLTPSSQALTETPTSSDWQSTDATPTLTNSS
Sequence of Serine/threonine-protein kinase 24 (Homo sapiens) (Q9Y6E0 whole entry, looked up, the tested form may be a part): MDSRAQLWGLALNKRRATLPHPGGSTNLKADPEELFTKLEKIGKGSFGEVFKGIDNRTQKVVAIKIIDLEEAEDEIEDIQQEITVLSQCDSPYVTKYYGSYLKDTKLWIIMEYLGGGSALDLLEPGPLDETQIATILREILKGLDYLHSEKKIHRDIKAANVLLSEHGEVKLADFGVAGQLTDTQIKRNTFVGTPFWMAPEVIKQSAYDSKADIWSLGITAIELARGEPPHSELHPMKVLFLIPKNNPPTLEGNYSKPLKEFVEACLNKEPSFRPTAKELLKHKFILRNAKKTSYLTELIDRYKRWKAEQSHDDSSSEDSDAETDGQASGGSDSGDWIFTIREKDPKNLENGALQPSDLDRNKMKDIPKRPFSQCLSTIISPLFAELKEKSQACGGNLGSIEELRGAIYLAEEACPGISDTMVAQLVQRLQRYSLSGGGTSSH

Structure (SMILES)	IC50 [1] [µM]	Activity [2] [%]	Activity [3] [%]	Activity [4] [%]	Activity [5] [%]	Activity [6] [%]	Activity [7] [%]	Activity [8] [%]	inhibition at 40 min, 10 µM (GSK-3beta (H350L mutant)) [%]	Activity [9] [%]	Activity [10] [%]	Activity [11] [%]	Activity [12] [%]	Activity [13] [%]	Activity [14] [%]	Activity [15] [%]	Activity [16] [%]	Activity [17] [%]	Activity [18] [%]	Activity [19] [%]	other results
N=C1NC(=O)/C(=C\c2ccc(-c3cccc([N+](=O)[O-])c3)o2)S1	0.049	99	105	107	37	97	106	2	95	95	96	93	107	92	99	100	95	102	103	115	Activity [20]: 102%
C=CCOC(=O)c1cc(-c2ccc(/C=C3/NC(=S)NC3=O)o2)ccc1Cl	0.033	96	106	82	93	98	107	7	92	95	87	107	95	100	100	92	102	104	98	102	Activity [20]: 103%
